Results published in US20250154686A1, “COMPOUND LIBRARY” (CHUGAI SEIYAKU KABUSHIKI KAISHA, priority 2021, published 2025).

Molecular target: T1, Human Bcl-2 protein (Homo sapiens, UniProt P10415)
T1 construct: purchased Novus Biologicals
Experiment: Evaluation of binding of compound to Bcl-2 by surface plasmon resonance (SPR), Example 7
Settings: for equilibrium dissociation constant compared with compound B2Q045-01: SPR, comparison with B2Q045-01; for binding to Bcl-2 confirmed by SPR: compounds identified by AS-MS (Example 5), individually synthesized
Procedure: A surface plasmon resonance method was used in order to analyze the binding affinity of the compounds synthesized in Example 1 and Example 6, which are shown in Table AK-01, for Bcl-2. The apparatus used was Biacore T200 (GE Healthcare Japan Corp.), and the running buffer used was HBS (10 mM HEPES-NaOH and 150 mM NaCl, pH 7.4) supplemented with 1 mM DTT, 3 mM EDTA, 0.01% Tween 20 and 4% DMSO. Human Bcl-2 protein (Novus Biologicals) was biotinylated using EZ-Link Sulfo-NHS-LC-LC-biotin (Thermo Fisher scientific Inc.) and immobilized on the surface of Sensor Chip SA (GE Healthcare Japan Corp.). Then, compound solutions having a plurality of concentrations and the running buffer (blank) were added to the Bcl-2-immobilized surface to obtain the binding response of the compounds. Measurement was performed at 15° C.′.
The obtained sensorgrams were treated with Biacore T200 Evaluation Software, and the equilibrium dissociation constant KD of each compound for Bel-2 was determined as shown in the following Table AK-02 and Table AK-03.

T1 sequence (P10415 whole entry): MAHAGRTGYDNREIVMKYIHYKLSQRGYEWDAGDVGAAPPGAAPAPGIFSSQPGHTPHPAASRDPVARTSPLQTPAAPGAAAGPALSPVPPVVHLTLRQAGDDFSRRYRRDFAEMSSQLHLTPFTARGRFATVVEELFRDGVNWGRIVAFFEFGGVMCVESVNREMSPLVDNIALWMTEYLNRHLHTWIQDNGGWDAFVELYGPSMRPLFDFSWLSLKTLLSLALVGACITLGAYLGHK

| Compound | equilibrium dissociation constant compared with compound B2Q045-01 | binding to Bcl-2 confirmed by SPR |
| --- | --- | --- |
| CCOc1cccc(-c2ccc(CN3CCN(c4ccc(C(=O)NS(=O)(=O)c5ccc(NCCSc6ccccc6)c([N+](=O)[O-])c5)cc4)CC3)cc2C)c1 [Compound B2Q047-01, 4-[4-[[4-(3-ethoxyphenyl)-3-methylphenyl]methyl]piperazin-1-yl]-N-[3-nitro-4-(2-phenylsulfanylethylamino)phenyl]sulfonylbenzamide] | smaller equilibrium dissociation constant Kp | confirmed to bind by SPR |
| CCOc1cncc(-c2ccc(CN3CCN(c4ccc(C(=O)NS(=O)(=O)c5ccc(NCCSc6ccccc6)c([N+](=O)[O-])c5)cc4)CC3)cc2C)c1 [Compound B2Q048-01, 4-[4-[[4-(5-ethoxypyridin-3-yl)-3-methylphenyl]methyl]piperazin-1-yl]-N-[3-nitro-4-(2-phenylsulfanylethylamino)phenyl]sulfonylbenzamide] | smaller equilibrium dissociation constant Kp | confirmed to bind by SPR |
| CCOc1cncc(-c2ccc(CN3CCN(c4ccc(C(=O)NS(=O)(=O)c5ccc(NCCSc6ccccc6)c([N+](=O)[O-])c5)cc4)CC3)c3ccccc23)c1 [Compound B2Q066-01, 4-[4-[[4-(5-ethoxypyridin-3-yl)naphthalen-1-yl]methyl]piperazin-1-yl]-N-[3-nitro-4-(2-phenylsulfanylethylamino)phenyl]sulfonylbenzamide] | smaller equilibrium dissociation constant Kp |  |
